The target of assay [1] is T1, human 5-HT2A serotonin receptor (Homo sapiens, UniProt P28223).
T1 construct: expressed in transfected cells; host or cells: HEK-293 EBNA cells (transient transfection), membrane preparation
In words: Radioligand binding, human 5-HT2A receptor ([3H]-ketanserin). The following applies: second value of the cell; membranes of transfected HEK-293 EBNA cells, 1.1 nM [3H]-ketanserin; read-out: Ki(nM) D3/5HT2A/D2: 5HT2A. On the procedure: (§1) The cells were harvested 48 h post-transfection, washed three times with cold PBS and stored at −80° C. prior to use. The pellet was suspended in cold 50 mM Tris-HCl buffer containing 10 mM EDTA (pH 7.4) and homogenized with a Polytron (Kinematica AG, Basel, Switzerland) for 20-30 sec at 12.000 rpm. After centrifugation at 48.000×g for 30 min at 4° C., the pellet was resuspended in cold 10 mM Tris-HCl buffer containing 0.1 mM EDTA (pH 7.4), homogenized, and centrifuged as above. This pellet was further resuspended in a smaller volume of ice cold 10 mM Tris-HCl buffer containing 0.1 mM EDTA (pH 7.4) and homogenized with a Polytron for 20-30 sec at 12.000 rpm. The protein content of this homogenate was determined with the Bio-Rad (Bradford) Protein Assay (Biorad Laboratories GmbH, München, Germany) according to the instructions of the manufacturer using gamma globulin as the standard. This homogenate was stored at −80° C. in aliquots and thawed immediately prior to use.
(§2) Aliquots of membrane preparations were thawed at RT, resupended in assay buffer (D2, D3: 50 mM Tris-HCl, 120 mM NaCl, 5 mM MgCl2, 1 mM EDTA, 5 mM KCl, 1.5 mM CaCl2, pH=7.4; 5-HT2A: 50 mM Tris-HCl, 10 mM MgCl2, 1 mM EGTA, pH=7.4), homogenized with a Polytron for 20-30 sec at 12.000 rpm and adjusted to a final concentration of approximately 7.5 μg protein/well (D2, D3) and 15 μg protein/well (5-HT2A), respectively.
(§3) The binding affinity (Ki) of the compounds was determined using radioligand binding. […] The nonspecific binding was determined with equally composed reaction mixtures in the presence of 10 μM unlabelled spiperone. Per well 45 μl of Microscint 40 (Perkin Elmer, Schwerzenbach, Switzerland) was added, plates for sealed, shaken for 20 min and counted for 3 min on a Topcount Microplate Scintillation Counter (Canberra Packard SA, Zürich, Switzerland) with quenching correction.
(§4) The CPM value for each duplicate of a concentration of competing compound was averaged (y1), then the % specific binding was calculated according to the equation (((y1−non-specific)/(total binding-non-specific))×100). Graphs were plotted with the % specific binding using XLfit, a curve fitting program that iteratively plots the data using Levenburg Marquardt algorithm. The single site competition analysis equation used was y=A+((B−A)/(+((x/C)^D))), where y is the % specific binding, A is the minimum y, B is the maximum y, C is the IC50, x is the log10 of the concentration of the competing compound and D is the slope of the curve (the Hill Coefficient). […] The affinity constant (Ki) was calculated using the Cheng-Prusoff equation KI =(IC50/1+([L]/Kd), where [L] is the concentration of radioligand and Kd is the dissociation constant of the radioligand at the receptor as determined by the saturation isotherm.

Assay [2] concerns the target T2, human D2 dopamine receptor (Homo sapiens, UniProt P14416).
T2 construct: expressed in transfected cells; host or cells: HEK-293 EBNA cells (transient transfection), membrane preparation
In words: Radioligand binding, human D2 receptor ([3H]-spiperone). The following applies: third value of the cell; membranes of transfected HEK-293 EBNA cells, 0.7 nM [3H]-spiperone; read-out: Ki(nM) D3/5HT2A/D2: D2. Here is the method: as §1, §2, §3, §4

In assay [3] the target is T3, human D3 dopamine receptor (Homo sapiens, UniProt P35462).
T3 construct: expressed in transfected cells; host or cells: HEK-293 EBNA cells (transient transfection), membrane preparation
The assay can be described thus: Radioligand binding, human D3 receptor ([3H]-spiperone). The following applies: first value of the cell; membranes of transfected HEK-293 EBNA cells, 0.5 nM [3H]-spiperone; read-out: Ki(nM) D3/5HT2A/D2: D3. Here is the method:
as §1, §2, §3, §4

T1 sequence (P28223 whole entry): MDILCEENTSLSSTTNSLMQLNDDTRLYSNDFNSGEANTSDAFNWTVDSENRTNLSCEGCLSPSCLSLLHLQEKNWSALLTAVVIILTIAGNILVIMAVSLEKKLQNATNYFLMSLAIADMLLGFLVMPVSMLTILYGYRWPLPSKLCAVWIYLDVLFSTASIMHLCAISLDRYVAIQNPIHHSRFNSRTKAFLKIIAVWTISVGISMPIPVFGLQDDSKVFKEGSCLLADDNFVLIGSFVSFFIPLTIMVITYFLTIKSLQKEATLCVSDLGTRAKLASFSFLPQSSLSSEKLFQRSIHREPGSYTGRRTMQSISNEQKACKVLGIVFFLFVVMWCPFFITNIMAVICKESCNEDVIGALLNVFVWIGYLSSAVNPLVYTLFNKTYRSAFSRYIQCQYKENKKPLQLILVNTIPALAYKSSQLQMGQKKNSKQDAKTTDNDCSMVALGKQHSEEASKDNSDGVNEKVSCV
T2 sequence (P14416 whole entry): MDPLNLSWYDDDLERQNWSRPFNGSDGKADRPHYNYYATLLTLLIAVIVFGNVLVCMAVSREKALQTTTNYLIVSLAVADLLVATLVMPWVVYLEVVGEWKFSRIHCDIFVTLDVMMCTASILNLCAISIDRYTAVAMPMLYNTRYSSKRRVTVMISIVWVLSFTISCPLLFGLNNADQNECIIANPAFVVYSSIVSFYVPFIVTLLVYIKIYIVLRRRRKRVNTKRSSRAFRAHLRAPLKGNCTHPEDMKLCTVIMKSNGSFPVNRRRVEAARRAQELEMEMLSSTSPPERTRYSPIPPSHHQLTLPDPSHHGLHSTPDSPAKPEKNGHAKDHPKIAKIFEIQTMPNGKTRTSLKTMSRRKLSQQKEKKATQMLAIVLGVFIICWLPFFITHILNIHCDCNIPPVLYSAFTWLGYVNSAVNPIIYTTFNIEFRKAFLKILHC
T3 sequence (P35462 whole entry): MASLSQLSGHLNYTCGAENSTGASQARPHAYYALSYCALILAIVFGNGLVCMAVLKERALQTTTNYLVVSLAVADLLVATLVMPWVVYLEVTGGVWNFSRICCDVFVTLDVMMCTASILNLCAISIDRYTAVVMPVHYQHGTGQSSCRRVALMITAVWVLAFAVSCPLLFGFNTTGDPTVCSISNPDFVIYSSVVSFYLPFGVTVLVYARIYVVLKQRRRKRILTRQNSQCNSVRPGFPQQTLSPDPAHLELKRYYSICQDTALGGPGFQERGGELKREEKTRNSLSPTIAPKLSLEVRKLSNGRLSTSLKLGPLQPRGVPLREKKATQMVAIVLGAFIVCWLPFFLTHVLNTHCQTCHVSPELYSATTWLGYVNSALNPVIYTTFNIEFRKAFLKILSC

With `O=C(N[C@H]1CC[C@H](CCN2CCC(F)(C(=O)c3ccccc3)CC2)CC1)c1ccnc2ccccc12` [Example 34, Quinoline-4-carboxylic acid trans-{4-[2-(4-benzoyl-4-fluoro-piperidin-1-yl)-ethyl]-cyclohexyl}-amide], the Ki in assay [1] came to 6 nM; in assay [2], 192 nM; in assay [3], 23 nM.

With `Cc1ccc(NC(=O)N[C@H]2CC[C@H](CCN3CCC(C(=O)c4ccc(F)cc4)CC3)CC2)cc1` [Example 41, Trans-1-(4-{2-[4-(4-Fluoro-benzoyl)-piperidin-1-yl]-ethyl}-cyclohexyl)-3-p-tolyl-urea], the Ki in assay [1] was found to be 11 nM; in assay [2] it was 677 nM; in assay [3], 4 nM.

On to `CN(C(=O)N[C@H]1CC[C@H](CCN2CCC(C(=O)c3ccc(F)cc3)CC2)CC1)c1ccc(Cl)cc1` [Example 42, Trans-1-(4-Chloro-phenyl)-3-(4-{2-[4-(4-fluoro-benzoyl)-piperidin-1-yl]-ethyl}-cyclohexyl)-1-methyl-urea], for which the figures for the Ki in assay [1], in assay [2] and in assay [3] were 11 nM, 352 nM and 146 nM, respectively.

Turning to `CN(C)C(=O)N[C@H]1CC[C@H](CCN2CCC(C(=O)c3ccc(F)cc3)CC2)CC1` [Example 42A7, Trans-3-(4-{2-[4-(4-Fluoro-benzoyl)-piperidin-1-yl]-ethyl}-cyclohexyl)-1,1-dimethyl-urea], the Ki worked out at 26 nM in assay [1], 176 nM in assay [2] and 86 nM in assay [3].

As to `COCCC(=O)N[C@H]1CC[C@H](CCN2CCC(F)(C(=O)c3ccc(F)cc3)CC2)CC1` [Example 50, N-trans (4-{2-[4-Fluoro-4-(4-fluoro-benzoyl)-piperidin-1-yl]-ethyl}-cyclohexyl)-3-methoxy-propionamide], the Ki was 2 nM in assay [1], 288 nM in assay [2] and 29 nM in assay [3].

Regarding `Cc1nc(-c2cccc(C(=O)N[C@H]3CC[C@H](CCN4CCC(O)(C(=O)c5ccc(F)cc5)CC4)CC3)c2)no1` [Example 57, N-trans (4-{2-[4-(4-Fluoro-benzoyl)-4-hydroxy-piperidin-1-yl]-ethyl}-cyclohexyl)-3-(5-methyl-[1,2,4]oxadiazol-3-yl)-benzamide], the Ki turned out to be 21 nM in assay [1], 1330 nM in assay [2] and 53 nM in assay [3].

With `COCCC(=O)N[C@H]1CC[C@H](CCN2CCC(C(=O)c3ccc(F)cc3F)CC2)CC1` [Example 58, N-trans (4-{2-[4-(2,4-Difluoro-benzoyl)-piperidin-1-yl]-ethyl}-cyclohexyl)-3-methoxy-propionamide], the values for the Ki in assay [1], in assay [2] and in assay [3] were 80 nM, 3540 nM and 19 nM, respectively.

Consider `O=C(CO)NC1CCC(CCN2CCC(C(=O)c3ccc(F)cc3F)CC2)CC1` (stereo not drawn) [Example 63A14, N-(4-{2-[4-(2,4-Difluoro-benzoyl)-piperidin-1-yl]-ethyl}-cyclohexyl)-2-hydroxy-acetamide], for which the Ki amounted to 83 nM in assay [1], 8540 nM in assay [2] and 44 nM in assay [3].

For `O=C(Nc1ccc(Cl)cc1)N[C@H]1CC[C@H](CCN2CCC(C(=O)c3ccc(F)cc3F)CC2)CC1` [Example 64, 1-(4-Chloro-phenyl)-3-trans (4-{2-[4-(2,4-difluoro-benzoyl)-piperidin-1-yl]-ethyl}-cyclohexyl)-urea], the Ki in assay [1] was 26 nM; in assay [2] it was 4000 nM; in assay [3], 4 nM.

Turning to `CC(=O)N[C@H]1CC[C@H](CCN2CCC(C(=O)c3ccccc3Cl)CC2)CC1` [Example 72, N-trans (4-{2-[4-(2-Chloro-benzoyl)-piperidin-1-yl]-ethyl}-cyclohexyl)-acetamide], the Ki amounted to 26 nM in assay [1], 2130 nM in assay [2] and 39 nM in assay [3].

Take “Trans-1-(4-Chloro-phenyl)-3-(4-{2-[4-(4-fluoro-benzoyl)-piperidin-1-yl]-ethyl}-cyclohexyl)-urea [Example 39]”: the Ki in assay [1] was found to be 3 nM; in assay [2], 1840 nM; in assay [3] it was 2 nM.

As to “Trans-1-(4-Ethoxy-phenyl)-3-(4-{2-[4-(4-fluoro-benzoyl)-piperidin-1-yl]-ethyl}-cyclohexyl)-urea [Example 40]”, the Ki in assay [1] is 9 nM; in assay [2], 502 nM; in assay [3] it was 8 nM.

These data come from patent US8039490B2, “Benzoyl-piperidine derivatives as dual modulators of the 5-HT2A and D3 receptors” (Hoffmann-La Roche Inc., priority 2006, dated 2011).
